Results reported in PubChem BioAssay (NCI).
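Results reflect a 48-hour exposure of cells in 96-well plates to compound at five concentrations. TGI is the concentration that stops growth completely.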

Experiments:
Test in all cases: NCI-60 cell line screen, 48 h
IGROV1 ovarian = tested on: IGROV1 ovarian
SF-539 CNS = tested on: SF-539 CNS
MOLT-4 leukemia = tested on: MOLT-4 leukemia
LOX IMVI melanoma = tested on: LOX IMVI melanoma
SNB-19 CNS = tested on: SNB-19 CNS
786-0 renal = tested on: 786-0 renal
SK-MEL-5 melanoma = tested on: SK-MEL-5 melanoma
NCI-H226 lung = tested on: NCI-H226 lung
SF-295 CNS = tested on: SF-295 CNS
OVCAR-3 ovarian = tested on: OVCAR-3 ovarian
LXFL 529 NSCLC = tested on: LXFL 529 NSCLC
SNB-78 CNS = tested on: SNB-78 CNS
ACHN renal = tested on: ACHN renal
U251 CNS = tested on: U251 CNS
SW-620 colon = tested on: SW-620 colon
MALME-3M melanoma = tested on: MALME-3M melanoma
UO-31 renal = tested on: UO-31 renal
CAKI-1 renal = tested on: CAKI-1 renal
HCT-15 colon = tested on: HCT-15 colon
SNB-75 CNS = tested on: SNB-75 CNS
TK-10 renal = tested on: TK-10 renal
UACC-62 melanoma = tested on: UACC-62 melanoma
KM12 colon = tested on: KM12 colon
SN12C renal = tested on: SN12C renal
M14 melanoma = tested on: M14 melanoma
HT29 colon = tested on: HT29 colon
SK-MEL-28 melanoma = tested on: SK-MEL-28 melanoma
NCI-H23 lung = tested on: NCI-H23 lung
OVCAR-5 ovarian = tested on: OVCAR-5 ovarian
HOP-92 NSCLC = tested on: HOP-92 NSCLC
OVCAR-8 ovarian = tested on: OVCAR-8 ovarian
NCI-H460 lung = tested on: NCI-H460 lung
COLO 205 colon = tested on: COLO 205 colon
HCT-116 colon = tested on: HCT-116 colon
XF 498 CNS = tested on: XF 498 CNS
OVCAR-4 ovarian = tested on: OVCAR-4 ovarian
EKVX NSCLC = tested on: EKVX NSCLC
HCC-2998 colon = tested on: HCC-2998 colon
DMS 114 small cell lung = tested on: DMS 114 small cell lung
SK-MEL-2 melanoma = tested on: SK-MEL-2 melanoma
DMS 273 small cell lung = tested on: DMS 273 small cell lung
K-562 leukemia = tested on: K-562 leukemia
A549 NSCLC = tested on: A549 NSCLC
KM20L2 colon = tested on: KM20L2 colon
A498 renal = tested on: A498 renal
DLD-1 colon = tested on: DLD-1 colon
SF-268 CNS = tested on: SF-268 CNS
SK-OV-3 ovarian = tested on: SK-OV-3 ovarian
CCRF-CEM leukemia = tested on: CCRF-CEM leukemia
UACC-257 melanoma = tested on: UACC-257 melanoma
RPMI-8226 leukemia = tested on: RPMI-8226 leukemia
NCI-H522 lung = tested on: NCI-H522 lung
SR leukemia = tested on: SR leukemia
RXF 393 renal = tested on: RXF 393 renal
M19-MEL melanoma = tested on: M19-MEL melanoma
HOP-18 NSCLC = tested on: HOP-18 NSCLC
HL-60(TB) leukemia = tested on: HL-60(TB) leukemia

Measured: TGI

CC(C)OP(=S)(NC(=S)c1ccccc1)OC(C)C
not listed: RPMI-8226 leukemia | NCI-H522 lung | SR leukemia | RXF 393 renal | M19-MEL melanoma | HOP-18 NSCLC | HL-60(TB) leukemia
> 100 µM: all other assays above

COC(=O)C1CSC(c2csc(CCN)n2)=N1 (stereo not drawn)
not listed: SF-539 CNS | A498 renal | DLD-1 colon | SF-268 CNS
> 100 µM: all other assays above
